≈ marks a conversion by molar mass, not a printed value.
Assays:
[1] = system: Mycobacterium tuberculosis; experiment: Antitubercular activity against Mycobacterium tuberculosis H37Rv ATCC 27294 after 11 days by serial dilution method; type: functional; conditions: H37Rv ATCC 27294, 264 h
[2] = Cytotoxicity against human L02 cells assessed as inhibitory ratio at 100 uM after 48 hrs by MTT assay; type: cell-based; conditions: read-out: INH

## O=c1nc(-c2cc(F)c(Cl)nc2Cl)ss1
[1]
  MIC90: 32 µg/mL (≈ 113 µM)
  MIC99: 4 µg/mL (≈ 14.1 µM)
[2]
  cytotoxicity at 48 h, 100 µM: 24.3%

## O=c1nc(-c2cnccn2)ss1
[1]
  MIC90: 32 µg/mL (≈ 162 µM)
  MIC99: 16 µg/mL (≈ 81.1 µM)
[2]
  cytotoxicity at 48 h, 100 µM: 56.7%

## O=c1nc(-c2cccnc2Cl)ss1
[1]
  MIC90: 32 µg/mL (≈ 139 µM)
  MIC99: 16 µg/mL (≈ 69.4 µM)
[2]
  cytotoxicity at 48 h, 100 µM: 34.4%

## O=c1nc(-c2ccc([N+](=O)[O-])cc2Cl)ss1
[1]
  MIC90: 32 µg/mL (≈ 116 µM)
  MIC99: 16 µg/mL (≈ 58.2 µM)
[2]
  cytotoxicity at 48 h, 100 µM: 28.6%

## O=c1nc(-c2ccccc2[N+](=O)[O-])ss1
[1]
  MIC90: 16 µg/mL (≈ 66.6 µM)
  MIC99: 32 µg/mL (≈ 133 µM)
[2]
  cytotoxicity at 48 h, 100 µM: 33%

## Cc1ccc(-c2nc(=O)ss2)s1
[1]
  MIC90: 16 µg/mL (≈ 74.3 µM)
  MIC99: 32 µg/mL (≈ 149 µM)
[2]
  cytotoxicity at 48 h, 100 µM: 36.3%

## Nc1ccc(-c2nc(=O)ss2)cc1
[1]
  MIC90: 16 µg/mL (≈ 76.1 µM)
  MIC99: 32 µg/mL (≈ 152 µM)
[2]
  cytotoxicity at 48 h, 100 µM: 46.3%

## O=c1nc(-c2ccc3ccccc3c2)ss1
[1]
  MIC90: 32 µg/mL (≈ 130 µM)
  MIC99: 16 µg/mL (≈ 65.2 µM)
[2]
  cytotoxicity at 48 h, 100 µM: 47.2%

## COc1ccc(OC)c(-c2nc(=O)ss2)c1
[1]
  MIC90: 32 µg/mL (≈ 125 µM)
  MIC99: 32 µg/mL (≈ 125 µM)
[2]
  cytotoxicity at 48 h, 100 µM: 23.7%

## COc1cccc(-c2nc(=O)ss2)c1
[1]
  MIC90: 16 µg/mL (≈ 71 µM)
  MIC99: 32 µg/mL (≈ 142 µM)
[2]
  cytotoxicity at 48 h, 100 µM: 38.6%

## Cc1ccccc1-c1nc(=O)ss1
[1]
  MIC90: 16 µg/mL (≈ 76.4 µM)
  MIC99: 32 µg/mL (≈ 153 µM)
[2]
  cytotoxicity at 48 h, 100 µM: 18.6%

## O=c1nc(-c2ccc(F)cc2)ss1
[1]
  MIC90: 32 µg/mL (≈ 150 µM)
  MIC99: 16 µg/mL (≈ 75 µM)
[2]
  cytotoxicity at 48 h, 100 µM: 33.7%

## O=c1nc(-c2ccc(Cl)cc2)ss1
[1]
  MIC90: 64 µg/mL (≈ 279 µM)
  MIC99: 32 µg/mL (≈ 139 µM)
[2]
  cytotoxicity at 48 h, 100 µM: 46%

## Cc1sc(-c2nsc(=O)o2)cc1[N+](=O)[O-]
[1]
  MIC90: 2 µg/mL (≈ 8.19 µM)
  MIC99: 1 µg/mL (≈ 4.09 µM)
[2]
  cytotoxicity at 48 h, 100 µM: 53.8%

## O=c1oc(-c2cc(F)c(Cl)nc2Cl)ns1
[1]
  MIC90: 16 µg/mL (≈ 59.9 µM)
  MIC99: 8 µg/mL (≈ 30 µM)
[2]
  cytotoxicity at 48 h, 100 µM: 15.1%

## O=c1oc(-c2cccnc2Cl)ns1
[1]
  MIC90: 8 µg/mL (≈ 37.3 µM)
  MIC99: 8 µg/mL (≈ 37.3 µM)
[2]
  cytotoxicity at 48 h, 100 µM: 31.4%

## O=c1oc(-c2ccc([N+](=O)[O-])cc2Cl)ns1
[1]
  MIC90: 16 µg/mL (≈ 61.9 µM)
  MIC99: 16 µg/mL (≈ 61.9 µM)
[2]
  cytotoxicity at 48 h, 100 µM: 54.6%

## O=c1oc(-c2ccccc2[N+](=O)[O-])ns1
[1]
  MIC90: 8 µg/mL (≈ 35.7 µM)
  MIC99: 16 µg/mL (≈ 71.4 µM)
[2]
  cytotoxicity at 48 h, 100 µM: 32.4%

## Cc1ccc(-c2nsc(=O)o2)s1
[1]
  MIC90: 8 µg/mL (≈ 40.1 µM)
  MIC99: 16 µg/mL (≈ 80.3 µM)
[2]
  cytotoxicity at 48 h, 100 µM: 25.1%

## Nc1ccc(-c2nsc(=O)o2)cc1
[1]
  MIC90: 16 µg/mL (≈ 82.4 µM)
  MIC99: 16 µg/mL (≈ 82.4 µM)
[2]
  cytotoxicity at 48 h, 100 µM: 39.5%

## O=c1oc(-c2ccc3ccccc3c2)ns1
[1]
  MIC90: 16 µg/mL (≈ 69.8 µM)
  MIC99: 16 µg/mL (≈ 69.8 µM)
[2]
  cytotoxicity at 48 h, 100 µM: 26.2%

## COc1ccc(OC)c(-c2nsc(=O)o2)c1
[1]
  MIC90: 16 µg/mL (≈ 66.9 µM)
  MIC99: 16 µg/mL (≈ 66.9 µM)
[2]
  cytotoxicity at 48 h, 100 µM: 25.3%

## COc1cccc(-c2nsc(=O)o2)c1
[1]
  MIC90: 8 µg/mL (≈ 38.2 µM)
  MIC99: 16 µg/mL (≈ 76.5 µM)
[2]
  cytotoxicity at 48 h, 100 µM: 15%

## Cc1ccccc1-c1nsc(=O)o1
[1]
  MIC90: 8 µg/mL (≈ 41.4 µM)
  MIC99: 16 µg/mL (≈ 82.8 µM)
[2]
  cytotoxicity at 48 h, 100 µM: 18.1%

## O=c1oc(-c2ccccc2Cl)ns1
[1]
  MIC90: 8 µg/mL (≈ 37.4 µM)
  MIC99: 8 µg/mL (≈ 37.4 µM)
[2]
  cytotoxicity at 48 h, 100 µM: 20.6%

## O=c1oc(-c2ccc(F)cc2)ns1
[1]
  MIC90: 16 µg/mL (≈ 81.1 µM)
  MIC99: 16 µg/mL (≈ 81.1 µM)
[2]
  cytotoxicity at 48 h, 100 µM: 21.7%

## O=c1oc(-c2ccc(Cl)cc2)ns1
[1]
  MIC90: 32 µg/mL (≈ 150 µM)
  MIC99: 4 µg/mL (≈ 18.7 µM)
[2]
  cytotoxicity at 48 h, 100 µM: 39.6%

## O=c1nc(-c2ccccc2Cl)ss1
[1]
  MIC90: 8 µg/mL (≈ 34.8 µM)
  MIC99: 16 µg/mL (≈ 69.7 µM)
[2]
  cytotoxicity at 48 h, 100 µM: 40.1%

## O=c1oc(-c2cnccn2)ns1
[1]
  MIC90: 16 µg/mL (≈ 88.3 µM)
  MIC99: 4 µg/mL (≈ 22.1 µM)
[2]
  cytotoxicity at 48 h, 100 µM: 31.4%

Reference: ChEMBL document CHEMBL2331501, “3H-1,2,4-Dithiazol-3-one compounds as novel potential affordable antitubercular agents” (Bioorg Med Chem Lett, 2013)
